Consider 29 molecules from US11358939B2, “1,4-benzodiazepin-2-one derivatives and use thereof” (priority 2017, dated 2022).

SMILES strings stand for the structures.

Test [1] has as its system central benzodiazepine receptors (CBR). Kind of test: Affinity to central benzodiazepine receptors, competitive displacement of [3H]-flumazenil (radioreceptor method). The note with it: 1×10^−6 mol/L. It is filed as binding. How it is done: Affinity of the compounds to central benzodiazepine receptors (CBR) was studied using radioreceptor method of competitive displacement of radioligant [^3H]-flumazenil (Ro 15-1788) from its specific binding sites at the receptor. Ligand displacement were performed in 1×10^−6 mol/L concentration.
(§1) Data on the affinity of 3-alcoxy-1,3-dihydro-2H-benzo[e][1,4]diazepin-2-ones (Ia) to central and peripheral benzodiazepine receptors is presented in Table 3.

Test [2] addresses peripheral benzodiazepine receptors (PBR) (Homo sapiens, UniProt P30536). The experiment in a line: Affinity to peripheral benzodiazepine receptors. It is filed as binding. The note with it: 1×10^−6 mol/L.
Source text: as §1

In test [3] the test system is writhes induced by intraperitoneal acetic acid. The experiment in a line: Analgesic activity, acetic acid-induced writhing test (peripheral pain model). It is filed as in vivo. The conditions noted are these: 1 mg/kg intraperitoneally, 40 min before 0.75% acetic acid. As to the method: Assessment of analgesic activity was performed in a model of peripheral pain based on chemical pain induced by intraperitoneal administration of acetic acid, leading to involuntary contractions of abdominal muscles, termed “writhes”, accompanied by hind leg extension and spine arching. The writhes were induced by 0.75% solution of acetic acid, which was administered intraperitoneally 40 min after intraperitoneal administration of test compounds in 0.001-5 mg/kg dose range. […] Analgesic activity was assessed by the ability of the compounds to reduce the number of writhes in test group compared to control group, and indicated as percentage using the following formula: AA=(Wc−Wt/Wc)×100%,
where AA—analgesic activity in %;
Wc—average number of writhes in control group;
Wt—average number of writhes in test group
Test compounds were studied in comparison with the reference drug sodium diclofenac in 10 mg/kg dose. ED50 was calculated using Prozorovsky method.
On the technique in general: An intraperitoneal irritant provokes the stretching counted in writhing tests.

The subject of test [4] is number of drinking actions despite electric shock. The experiment in a line: Anxiolytic activity, conflict situation model (drinking versus electric shock). It is filed as in vivo. The conditions noted are these: for Anxiolytic properties: 5 mg/kg; for Anxiolytic activity assessed using conflict situation method (5 mg/kg): number of drinking actions despite electric shock, 30 min before test. As to the method:
Anxiolytic activity was assessed in a model of conflict situation based on the conflict of two reflexes (drinking and defensive) when drinking water from a water fountain. Anxiolytic activity was assessed by the number of drinking actions despite electric shock.
(§2) Diazepam drug was used as the reference drug. All test compounds and the reference drug diazepam were administered in a suspension with Tween-80 in 5 mg/kg dose 30 min before the start of experiments.

Test [5] concerns general movement activity of animals. Kind of test: General movement activity, open field test. It counts as in vivo. The conditions noted are these: for General movement activity (5 mg/kg): open field 3 min, sum of rearings, transitions, explored holes, 30 min before test; for Sedative properties (words, from general movement activity versus control): 5 mg/kg. As to the method:
General movement activity was assessed in an open field test. While the animals were in the open field (3 min), the number of rearings (vertical movement activity), transitions between squares (horizontal movement activity) and the number of explored holes (exploratory activity) were registered. The sum of these values is general movement activity.
as §2

Sequence of peripheral benzodiazepine receptors (PBR) (P30536 whole entry, species assumed): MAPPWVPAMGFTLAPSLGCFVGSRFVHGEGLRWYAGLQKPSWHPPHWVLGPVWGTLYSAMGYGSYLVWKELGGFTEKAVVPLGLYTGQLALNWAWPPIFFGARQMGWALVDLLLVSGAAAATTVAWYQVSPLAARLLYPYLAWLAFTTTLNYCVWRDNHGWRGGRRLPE

Turning to `O=C1Nc2ccc(OC(F)(F)F)cc2C(c2ccccc2)=NC1OCCO` (stereo not shown) [Compound 30], the “Affinity CBR, %” value in test [1] came out at 65%. The “Affinity PBR, %” value in test [2] was determined as 16%. The “Writhing inhibition, % of control in 1 mg/kg dose” value (“Writhing inhibition, % of control” for short) in test [3] (compounds Ia) amounted to 50%.
In the same order, the values of `COCCOC1N=C(c2ccccc2F)c2cc(Br)ccc2NC1=O` (stereo not shown) [Compound 5] are 90%, 10% and 52%.
In the same order, the values of `CCCOC1N=C(c2ccccc2F)c2cc(Br)ccc2NC1=O` (stereo not shown) [Compound 2] are 85%, 5% and 55%.
In the same order, the values of `O=C1Nc2ccc(Cl)cc2C(c2ccccc2)=NC1OCC1CC1` (stereo not shown) [Compound 17] are 79%, 14% and 54%.
For `CCCCOC1N=C(c2ccccc2F)c2cc(Br)ccc2NC1=O` (stereo not shown) [Compound 3], in test [1], the “Affinity CBR, %” value was found to be 88%. Also, in test [2], the “Affinity PBR, %” value was 8%. Besides, in test [3] (compounds Ia), the “Writhing inhibition, % of control” value was found to be 45%.
On the same counts, the results for `COCCOC1N=C(c2ccccc2)c2cc(Cl)ccc2NC1=O` (stereo not shown) [Compound 16] are 88%, 15% and 55%.
On to `COC(=O)CN1C(=O)C(Nc2ccccc2[N+](=O)[O-])N=C(c2ccccc2)c2cc([N+](=O)[O-])ccc21` (stereo not shown) [Compound 281], for which the “Writhing inhibition, % of control” value in test [3] (compounds Ib) was 61%. For the same molecule, in test [4], the “Anxiolytic properties” value is reported as “potent anxiolytic properties” and the “Anxiolytic activity assessed using conflict situation method (5 mg/kg)” value (“Anxiolytic activity assessed” for short) came out at 115.6 ± 9.3. Also, the “General movement activity (5 mg/kg)” value in test [5] came to 14.0 ± 1.4.
`COC(=O)CN1C(=O)C(Nc2ccc(F)cc2)N=C(c2ccccc2Cl)c2cc([N+](=O)[O-])ccc21` (stereo not shown) [Compound 319]: in test [3] (compounds Ib), the “Writhing inhibition, % of control” value is reported as 61%. In addition, the “Anxiolytic activity assessed” value in test [4] amounted to 18.1 ± 2.2. Further, the “General movement activity (5 mg/kg)” value in test [5] is 27.2 ± 2.1.
On the same counts, the results for `COC(=O)CN1C(=O)C(Nc2ccccc2C(F)(F)F)N=C(c2ccccc2F)c2cc([N+](=O)[O-])ccc21` (stereo not shown) [Compound 398] are 68%, 33.1 ± 3.2 and 28.2 ± 3.3.
For `CCOC1N=C(c2ccccc2)c2cc(OC(F)(F)F)ccc2NC1=O` (stereo not shown) [Compound 27], the “Affinity CBR, %” value in test [1] is reported as 56%. In addition, in test [2], the “Affinity PBR, %” value was determined as 16%. For the same molecule, the “Writhing inhibition, % of control” value in test [3] (compounds Ia) was found to be 55%.
For the molecule `CCOC1N=C(c2ccccc2Cl)c2cc([N+](=O)[O-])ccc2NC1=O` (stereo not shown) [Compound 53], the “Affinity CBR, %” value in test [1] was determined as 85%. For the same molecule, in test [2], the “Affinity PBR, %” value was found to be 15%.
As to `COC(=O)CN1C(=O)C(Nc2cccc(Br)c2)N=C(c2ccccc2Cl)c2cc([N+](=O)[O-])ccc21` (stereo not shown) [Compound 327], the “Writhing inhibition, % of control” value in test [3] (compounds Ib) is recorded as 70%. Further, in test [4], the “Anxiolytic activity assessed” value is 43.4 ± 3.2. In addition, in test [5], the “Sedative properties (words, from general movement activity versus control)” value is listed as “don't have sedative properties” and the “General movement activity (5 mg/kg)” value is on record as 45.0 ± 3.7.
Turning to `COC(=O)CN1C(=O)C(Nc2ccccc2Cl)N=C(c2ccccc2F)c2cc([N+](=O)[O-])ccc21` (stereo not shown) [Compound 362], the “Writhing inhibition, % of control” value in test [3] (compounds Ib) is 65%. The “Anxiolytic activity assessed” value in test [4] was determined as 35.1 ± 3.5. Also, the “General movement activity (5 mg/kg)” value in test [5] worked out at 29.2 ± 2.3.
For the molecule `COC(=O)CN1C(=O)C(Nc2ccccc2C(C)=O)N=C(c2ccccc2F)c2cc(Br)ccc21` (stereo not shown) [Compound 89], the “Writhing inhibition, % of control” value in test [3] (compounds Ib) was 66%. For the same molecule, in test [4], the “Anxiolytic activity assessed” value amounted to 3.4 ± 1.2. Further, in test [5], the “Sedative properties (words, from general movement activity versus control)” value is “don't have sedative properties” and the “General movement activity (5 mg/kg)” value is recorded as 40.0 ± 2.7.
Consider `COC(=O)CN1C(=O)C(Nc2ccccc2[N+](=O)[O-])N=C(c2ccccc2)c2cc(OC(F)(F)F)ccc21` (stereo not shown) [Compound 227], for which, in test [3] (compounds Ib), the “Writhing inhibition, % of control” value turned out to be 60%. In test [4], the “Anxiolytic properties” value is “potent anxiolytic properties” and the “Anxiolytic activity assessed” value amounted to 109.5 ± 8.3. Besides, the “General movement activity (5 mg/kg)” value in test [5] was 13.0 ± 1.3.
For `COC(=O)CN1C(=O)C(Nc2ccc(Br)cc2)N=C(c2ccccc2Cl)c2cc([N+](=O)[O-])ccc21` (stereo not shown) [Compound 328], the “Writhing inhibition, % of control” value in test [3] (compounds Ib) worked out at 69%. In addition, the “Anxiolytic activity assessed” value in test [4] is 23.2 ± 3.4. Further, the “General movement activity (5 mg/kg)” value in test [5] is 24.5 ± 2.3.
Take `COC(=O)CN1C(=O)C(Nc2cccc(C(F)(F)F)c2)N=C(c2ccccc2F)c2cc([N+](=O)[O-])ccc21` (stereo not shown) [Compound 399]: the “Writhing inhibition, % of control” value in test [3] (compounds Ib) amounted to 70%. In test [4], the “Anxiolytic activity assessed” value is given as 44.4 ± 4.3. In test [5], the “Sedative properties (words, from general movement activity versus control)” value is listed as “don't have sedative properties” and the “General movement activity (5 mg/kg)” value amounted to 41.8 ± 4.3.
`CCCOC1N=C(c2ccccc2)c2cc(OC(F)(F)F)ccc2NC1=O` (stereo not shown) [Compound 28]: the “Affinity CBR, %” value in test [1] was determined as 60%. Also, the “Affinity PBR, %” value in test [2] was determined as 18%. Also, the “Writhing inhibition, % of control” value in test [3] (compounds Ia) is 60%.
For `CCCCOC1N=C(c2ccccc2Cl)c2cc([N+](=O)[O-])ccc2NC1=O` (stereo not shown) [Compound 55], the “Affinity CBR, %” value in test [1] came to 87%. In test [2], the “Affinity PBR, %” value came out at 19%.
With `O=C1Nc2ccc(Br)cc2C(c2ccccc2F)=NC1OCCO` (stereo not shown) [Compound 4], the “Affinity CBR, %” value in test [1] was determined as 91%. Further, the “Affinity PBR, %” value in test [2] was found to be 8%. In test [3] (compounds Ia), the “Writhing inhibition, % of control” value came out at 56%.
`COC(=O)CN1C(=O)C(Nc2cccc([N+](=O)[O-])c2)N=C(c2ccccc2)c2cc(Cl)ccc21` (stereo not shown) [Compound 174]: the “Writhing inhibition, % of control” value in test [3] (compounds Ib) worked out at 58%. In test [4], the “Anxiolytic activity assessed” value turned out to be 60.6 ± 7.0. For the same molecule, in test [5], the “General movement activity (5 mg/kg)” value was 18.0 ± 2.4.
In the same order, the values of `COC(=O)CN1C(=O)C(Nc2ccc([N+](=O)[O-])cc2)N=C(c2ccccc2)c2cc(Cl)ccc21` (stereo not shown) [Compound 175] are 55%, 48.7 ± 3.6 and 20.0 ± 1.0.
As for `CCCCOC1N=C(c2ccccc2)c2cc(OC(F)(F)F)ccc2NC1=O` (stereo not shown) [Compound 29], the “Affinity CBR, %” value in test [1] is given as 61%. Further, the “Affinity PBR, %” value in test [2] stood at 15%. For the same molecule, in test [3] (compounds Ia), the “Writhing inhibition, % of control” value is 56%.
`COC(=O)CN1C(=O)C(Nc2cccc(Cl)c2)N=C(c2ccccc2F)c2cc([N+](=O)[O-])ccc21` (stereo not shown) [Compound 363]: the “Writhing inhibition, % of control” value in test [3] (compounds Ib) was 70%. Also, the “Anxiolytic activity assessed” value in test [4] is on record as 46.4 ± 4.2. In test [5], the “Sedative properties (words, from general movement activity versus control)” value is reported as “don't have sedative properties” and the “General movement activity (5 mg/kg)” value is 41.0 ± 3.9.
Turning to `COC(=O)CN1C(=O)C(Nc2cccc([N+](=O)[O-])c2)N=C(c2ccccc2)c2cc(OC(F)(F)F)ccc21` (stereo not shown) [Compound 228], in test [3] (compounds Ib), the “Writhing inhibition, % of control” value is 62%. In addition, the “Anxiolytic activity assessed” value in test [4] was 40.6 ± 3.9. The “General movement activity (5 mg/kg)” value in test [5] worked out at 17.0 ± 2.4.
`CCCOC1N=C(c2ccccc2Cl)c2cc([N+](=O)[O-])ccc2NC1=O` (stereo not shown) [Compound 54]: in test [1], the “Affinity CBR, %” value was found to be 88%. Also, the “Affinity PBR, %” value in test [2] is given as 16%.
Turning to `COC(=O)CN1C(=O)C(Nc2ccccc2[N+](=O)[O-])N=C(c2ccccc2)c2cc(Cl)ccc21` (stereo not shown) [Compound 173], the “Writhing inhibition, % of control” value in test [3] (compounds Ib) was 55%. Besides, in test [4], the “Anxiolytic properties” value is recorded as “potent anxiolytic properties” and the “Anxiolytic activity assessed” value stood at 120.5 ± 10.3. Further, the “General movement activity (5 mg/kg)” value in test [5] worked out at 15.0 ± 1.3.
`COC(=O)CN1C(=O)C(Nc2ccc([N+](=O)[O-])cc2)N=C(c2ccccc2)c2cc([N+](=O)[O-])ccc21` (stereo not shown) [Compound 283]: the “Writhing inhibition, % of control” value in test [3] (compounds Ib) came out at 54%. For the same molecule, the “Anxiolytic activity assessed” value in test [4] was determined as 45.1 ± 2.6. For the same molecule, the “General movement activity (5 mg/kg)” value in test [5] is given as 22.0 ± 2.0.
`O=C1Nc2ccc(Br)cc2C(c2ccccc2F)=NC1OCC1CC1` (stereo not shown) [Compound 6]: the “Affinity CBR, %” value in test [1] is on record as 89%. In addition, the “Affinity PBR, %” value in test [2] was determined as 15%. Also, the “Writhing inhibition, % of control” value in test [3] (compounds Ia) was found to be 55%.
